What was measured:
[1] = test system: full spectrum CBD hemp oil nanoemulsion; test: Sensory evaluation: bitterness reduction of full spectrum CBD hemp oil; assay type: in vivo; conditions: dosage 50 or 100 ppm per sample
Protocol: The bitterness blocker candidates listed in Table 1 were prepared into a 1% sample solution with propylene glycol and heated to ensure complete solubilization. […] A full spectrum CBD hemp oil was emulsified into a water-soluble nanoemulsion first, to which was added the respective sample solution. […] A trained sensory evaluator was asked to estimate the perceived bitterness reduction against the control, as well as to provide comments on how the addition of the individual sample solution modulated the taste and mouth feel profile of the resulting oil nanoemulsion.

caffeine in water = test: Two-alternative forced choice (2AFC) difference test; assay type: in vivo
Protocol: The bitter blocker candidates BB09, BB11, and BB13 were subject to a two-alternative forced choice (2AFC) difference test wherein panelists were presented Control Caffeine solutions and Test solutions containing caffeine and one of three bitterness blocker candidates (BB09, BB 11, or BB13). Panelists were asked to evaluate the two samples and answer the question, “which one is more hitter?”
BB09 and BB11 were tested first. Three ounces of control (caffeine in water), BB09 in caffeine water, and BB11 in caffeine water were presented at room temperature in separate plastic souffle cups labeled with 3-digit codes. Ten sensory trained panelists evaluated each sample in three repetitions with a 10 minute break between repetitions. Panelists then completed the 2AFC. Data was collected on EveQuestion and analyzed on XLSTAT. Testing was conducted at Sensations Research according to FEMA guidelines.
BB13 was tested separately. Two ounces of control (caffeine in water), BB13 in caffeine water were presented at room temperature in separate plastic souffle cups labeled with 3-digit codes. Fifteen participants evaluated each sample in two repetitions with a 10 minute break between repetitions for a total of thirty evaluations as per the FEMA guidelines. Panelists then completed the 2AFC to identify the more bitter sample. Data was collected and analyzed on Compusense.

dark roast coffee = test: Sensory evaluation: bitterness reduction of dark roast coffee; assay type: in vivo; conditions: dosage 50 or 100 ppm per sample
Protocol: The bitterness blocker candidates listed in Table 1 were prepared into a 1% sample solution with propylene glycol and heated to ensure complete solubilization. […] A trained sensory evaluator was asked to estimate the perceived bitterness reduction against the control, as well as to provide comments on how the addition of the individual sample solution modulated the taste and mouth feel profile of the resulting dark roast coffee.

[2] = test system: bitter-responsive human taste bud tissue-derived cells (hTBEC); test: ATP secretion detection assay (luminescence); assay type: cell-based
Protocol: The bitter blocker candidates were further characterized using bitter-responsive human taste bud tissue-derived cells (hTBEC) platforms and bioassays. Bitter-responsive hTBECs were treated with hitter blocker candidates and various bitter agonists to assess the efficacy of each bitter blocker candidate in reducing the bitterness of each of the various bitter agonists.
One industry standard bitter agonist was used as a control (L-Praziquantel), and five bitter blocker controls were used (Senomyx BB68, STX-001, sodium gluconate, eridictyol, and homoeridictyol).
BB09, BB11, and BB13 were first tested at various concentrations in combination with 100 μM Dextromethorphan-HBr.
Next, bitter blocker concentration ranges were narrowed (100 μM-1,000 μM) and compared to a fixed concentration of stimulus. […] BB13 was evaluated further by real time ATP secretion detection in pooled hTBEC 66 cells treated with 300 μM Theobromine.
Each culture was treated with BB09, BB11, BB13, STX001, or Senomyx BB68, as well as either Dextromethorphan-HBr at 1000 μM (FIGS. 18A-18C), Theobromine at 1,000 μM (FIGS. 19A-19C), Rebaudioside A at 1 mM (FIGS. 20A-20C), or Caffeine at 3 mM (FIGS. 21A-21C).

[3] = test system: peach-flavored energy drink (caffeine, B vitamins); test: Sensory evaluation: bitterness reduction of a peach-flavored energy drink; assay type: in vivo; conditions: caffeine about 710 mg/l, dosage (ppm) per sample (20 to 50-100 ppm)
Protocol: The bitterness blocker candidates listed in Table 1 were prepared into a 1% sample solution with propylene glycol and heated to ensure complete solubilization. […] A trained sensory evaluator was asked to estimate the perceived bitterness reduction against the control, as well as to provide comments on how the addition of the individual sample solution modulated the taste and mouth feel profile of the resulting peach-flavored energy drink.

0.25% caffeine solution = test: Sensory evaluation: bitterness reduction of a caffeine solution; assay type: in vivo; conditions: one trained sensory evaluator, vs control, dosage (ppm) per sample (20 to 50-100 ppm)
Protocol: The bitter blocker candidates listed in Table 1 were prepared into a 1% sample solution with propylene glycol (i.e., 1 g of bitter blocker per 100 ml of propylene glycol) and heated to ensure complete solubilization. […] A trained sensory evaluator was asked to estimate the perceived bitterness reduction against the control, as well as to provide comments on how the addition of the individual sample solution modulated the taste and mouth feel profile of the resulting caffeine solution.

[4] = test system: cough syrup ROBITUSSIN DM (dextromethorphan HBr and guaifenesin); test: Sensory evaluation: bitterness reduction of cough syrup ROBITUSSIN DM; assay type: in vivo; conditions: dosage 50 or 100 ppm per sample
Protocol: The bitterness blocker candidates listed in Table 1 were prepared into a 1% sample solution with propylene glycol and heated to ensure complete solubilization. […] Individually, the respective sample solution was added to a cough syrup sold under the trade name ROBITUSSIN® DM. The bitter-tasting agents contained in the cough syrup were dextromethorphan HBr USP 20 mg and guaifenesin USP 400 mg (as measured for each 20 ml serving, or 21000 mg/l of bitter tastants in total). A trained sensory evaluator was asked to estimate the perceived bitterness reduction against the control, as well as to provide comments on how the addition of the individual sample solution modulated the taste and mouth feel profile of the resulting cough syrup.

[5] = test system: melted dark chocolate pieces with 100% dark cacao; test: Sensory evaluation: bitterness reduction of dark chocolate pieces; assay type: in vivo; conditions: dosage 50 or 100 ppm per sample
Protocol: The bitterness blocker candidates listed in Table 1 were prepared into a 1% sample solution with propylene glycol and heated to ensure complete solubilization. […] Individually, the respective sample solution was added to melted dark chocolate pieces with 100% dark cacao. A trained sensory evaluator was asked to estimate the perceived bitterness reduction against the control, as well as to provide comments on how the addition of the individual sample solution modulated the taste and mouth feel profile of the resulting melted dark chocolate pieces.

CBD isolate nanoemulsion = test: Sensory evaluation: bitterness reduction of CBD isolate; assay type: in vivo; conditions: dosage 50 or 100 ppm per sample
Protocol: The bitterness blocker candidates listed in Table 1 were prepared into a 1% sample solution with propylene glycol and heated to ensure complete solubilization. […] A CBD isolate was emulsified into a water-soluble nanoemulsion first, to which was added the respective sample solution. […] A trained sensory evaluator was asked to estimate the perceived bitterness reduction against the control, as well as to provide comments on how the addition of the individual sample solution modulated the taste and mouth feel profile of the resulting nanoemulsion.

COc1cc([C@@H]2CC(=O)c3c(O)cc(O)cc3O2)ccc1O[C@@H]1O[C@H](CO)[C@@H](O)[C@H](O)[C@H]1O [BB11, Homoeriodictyol 4′-O-glucoside]
Comments [1]: Nice upfront bitterness reduction | Estimated % bitterness reduction [1]: 60% | Significant? (caffeine in water; 2AFC, 90% confidence level, which sample is more bitter): Yes, | # Selected Variant (which is more bitter?) (caffeine in water; of 30 responses (10 panelists, 3 evaluations), control caffeine in water vs variant in caffeine water): 10 | Estimated % bitterness reduction (dark roast coffee; caffeine about 740 mg/l): 80% | Comments (dark roast coffee): Nice upfront bitterness reduction | inhibition of luminescence activity of Dextromethorphan-HBr (ATP secretion) ([2]; 100 μM Dextromethorphan-HBr, various blocker concentrations (FIG. 12)): able to inhibit | inhibition of the L-Praziquantel response (ATP secretion) ([2]; 400 μM L-Praziquantel, pooled donor-derived hTBEC (FIG. 13)): showed inhibition | inhibition of the bitter agonists (ATP secretion) ([2]; hTBEC 66, hTBEC 56, hTBEC Donor H, Dextromethorphan-HBr at 1000 μM, Theobromine 1,000 μM, Rebaudioside A 1 mM or Caffeine 3 mM (FIGS. 18-21)): trends of inhibition in most cases | Estimated % bitterness reduction [3]: 80% | Estimated % bitterness reduction (0.25% caffeine solution): 60-80% ^ | Estimated % bitterness reduction ([4]; 21000 mg/l of bitter tastants): 60% | Comments [4]: Less bitter, smoother, more | Comments [5]: Good bitterness reduction but | Estimated % bitterness reduction [5]: 60% | Comments (CBD isolate nanoemulsion): Nice upfront bitterness reduction | Estimated % bitterness reduction (CBD isolate nanoemulsion): 60%

Source: patent publication US20230270148A1, “BITTER BLOCKERS AND RELATED METHODS OF USE” (Conagen Inc., priority 2020, published 2023)
